What is called IC50 is the concentration needed to halve the response being measured.

The source of these data is patent US9187464B2, “TRPV4 antagonists” (GlaxoSmithKline Intellectual Property (No. 2) Limited, priority 2011, dated 2015).

Structures are written as SMILES.

This assay deals with T1, human TRPV4 (Homo sapiens, UniProt Q9HBA0).
T1 construct: expressed in transfected cells; host or cells: HEK-293-MSR-II cells transduced with 1% BacMam virus
The assay can be described thus: Ligand-gated assay (Fluo4 calcium, FLIPR; inhibition of agonist-induced activation). The format is cell-based. As to conditions: HEK-293-MSR-II cells transduced with BacMam human TRPV4; agonist at EC80. The procedure, abridged: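 Agonist (EC80) response read on FLIPR as Fluo-4 (2 uM) fluorescence after 10-min room-temperature compound exposure in HBSS/HEPES pH 7.4 with 0.01% Chaps. Cells: HEK-293-MSR-II expressing human TRPV4 via BacMam; output is IC50 of inhibition.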

T1 sequence (Q9HBA0 whole entry): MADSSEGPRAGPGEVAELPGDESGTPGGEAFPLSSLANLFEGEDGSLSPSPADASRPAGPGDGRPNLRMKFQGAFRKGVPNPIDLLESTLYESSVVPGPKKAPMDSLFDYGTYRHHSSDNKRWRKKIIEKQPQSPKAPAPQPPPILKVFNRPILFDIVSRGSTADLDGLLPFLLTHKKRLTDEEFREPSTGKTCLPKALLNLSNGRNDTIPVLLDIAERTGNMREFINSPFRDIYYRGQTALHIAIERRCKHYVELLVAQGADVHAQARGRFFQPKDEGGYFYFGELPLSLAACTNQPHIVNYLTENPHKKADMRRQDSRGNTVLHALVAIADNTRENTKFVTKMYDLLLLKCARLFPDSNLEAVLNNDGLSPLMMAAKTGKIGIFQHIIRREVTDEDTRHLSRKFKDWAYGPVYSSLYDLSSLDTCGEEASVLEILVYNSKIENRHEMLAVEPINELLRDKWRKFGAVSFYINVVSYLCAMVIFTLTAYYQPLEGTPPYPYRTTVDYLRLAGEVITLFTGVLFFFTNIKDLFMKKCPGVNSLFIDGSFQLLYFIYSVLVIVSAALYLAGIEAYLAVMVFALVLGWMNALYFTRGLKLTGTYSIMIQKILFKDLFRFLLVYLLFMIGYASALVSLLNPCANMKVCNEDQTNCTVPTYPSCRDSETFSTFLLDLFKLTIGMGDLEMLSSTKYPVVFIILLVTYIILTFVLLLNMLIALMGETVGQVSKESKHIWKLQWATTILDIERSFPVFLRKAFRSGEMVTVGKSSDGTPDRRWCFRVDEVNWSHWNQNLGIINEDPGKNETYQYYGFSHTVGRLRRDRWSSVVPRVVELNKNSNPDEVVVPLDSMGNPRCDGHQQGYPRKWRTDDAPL

For the compound `CC(C)n1cc(CN2C[C@@]3(CCC[C@](C)(Cn4cnc5ccc(C#N)cc54)C3)OC2=O)nn1` [Example 104, 1-[((5S,7S)-7-methyl-3-{[1-(1-methylethyl)-1H-1,2,3-triazol-4-yl]methyl}-2-oxo-1-oxa-3-azaspiro[4.5]dec-7-yl)methyl]-1H-benzimidazole-6-carbonitrile], the IC50 fell in the range of 50 to 500 nM.
As for `CC(C)(F)c1cc(N2C[C@@]3(CCC[C@](C)(Cn4cnc5ccc(C#N)cc54)C3)OC2=O)on1` [Example 39, 1-(((5S,7S)-3-(3-(2-fluoropropan-2-yl)isoxazol-5-yl)-7-methyl-2-oxo-1-oxa-3-azaspiro[4.5]decan-7-yl)methyl)-1H-benzo[d]imidazole-6-carbonitrile], the IC50 fell in the range of 0.1 to 10 nM.
Under `N#Cc1cccc(-n2cc(CN3C[C@@]4(CCC[C@H](Cn5cnc6ccc(C#N)cc65)C4)OC3=O)nn2)c1` [Example 92, 1-[((5S,7S)-3-{[1-(3-cyanophenyl)-1H-1,2,3-triazol-4-yl]methyl}-2-oxo-1-oxa-3-azaspiro[4.5]dec-7-yl)methyl]-1H-benzimidazole-6-carbonitrile] stands 10 to 50 nM.
Turning to `Cc1c(C(C)(C)C)noc1N1C[C@@]2(CCC[C@](C)(Cn3cnc4ccc(C#N)cc43)C2)OC1=O` [Example 41, 1-(((5S,7S)-3-(3-(tert-butyl)-4-methylisoxazol-5-yl)-7-methyl-2-oxo-1-oxa-3-azaspiro[4.5]decan-7-yl)methyl)-1H-benzo[d]imidazole-6-carbonitrile], the IC50 was in the range of 0.1 to 10 nM.
Under `CN(C)c1cnc(N2C[C@@]3(CCC[C@](C)(Cn4cnc5ccc(C#N)cc54)C3)OC2=O)cn1` [Example 150, 1-(((5S,7S)-3-(5-(dimethylamino)pyrazin-2-yl)-7-methyl-2-oxo-1-oxa-3-azaspiro[4.5]decan-7-yl)methyl)-1H-benzo[d]imidazole-6-carbonitrile] stands 50 to 500 nM.
On to `COc1cc(OC)c(N2C[C@@]3(CCC[C@H](Cn4cnc5ccc(C#N)cc54)C3)OC2=O)cn1` [Example 141, 1-({(5S,7S)-3-[4,6-bis(methyloxy)-3-pyridinyl]-2-oxo-1-oxa-3-azaspiro[4.5]dec-7-yl}methyl)-1H-benzimidazole-6-carbonitrile], for which the IC50 lay in the range of 10 to 50 nM.
On to `N#Cc1ccc2ccn(C[C@H]3CCC[C@]4(C3)CN(Cc3csc5ccc(Cl)cc35)C(=O)O4)c2c1` (stereo in doubt) [Example 59, 1-({3-[(5-chloro-1-benzothien-3-yl)methyl]-2-oxo-1-oxa-3-azaspiro[4.5]dec-7-yl}methyl)-1H-indole-6-carbonitrile], for which the IC50 is 50 to 500 nM.
On to `COC(C)(C)c1ccc(N2C[C@@]3(CCC[C@](C)(Cn4cnc5ccc(C#N)cc54)C3)OC2=O)cn1` [Example 55, 1-(((5S,7S)-3-(6-(2-methoxypropan-2-yl)pyridin-3-yl)-7-methyl-2-oxo-1-oxa-3-azaspiro[4.5]decan-7-yl)methyl)-1H-benzo[d]imidazole-6-carbonitrile], for which the IC50 was in the range of 0.1 to 10 nM.
In the case of `Cc1cc(-c2ccc(F)cn2)ncc1N1C[C@@]2(CCC[C@](C)(Cn3cnc4ccc(C#N)cc43)C2)OC1=O` [Example 165, 1-(((5S,7S)-3-(5′-fluoro-4-methyl-[2,2′-bipyridin]-5-yl)-7-methyl-2-oxo-1-oxa-3-azaspiro[4.5]decan-7-yl)methyl)-1H-benzo[d]imidazole-6-carbonitrile], the IC50 lay within 0.1 to 10 nM.
For the compound `CC(C)(C)c1ncc(N2C[C@@]3(CCC[C@H](Cn4cnc5ccc(C#N)cc54)C3)OC2=O)cn1` [Example 116, 1-(((5S,7S)-3-(2-(tert-butyl)pyrimidin-5-yl)-2-oxo-1-oxa-3-azaspiro[4.5]decan-7-yl)methyl)-1H-benzo[d]imidazole-6-carbonitrile], the IC50 lay within 10 to 50 nM.
Take `COc1cc(Cl)ncc1N1C[C@@]2(CCC[C@H](Cn3cnc4ccc(C#N)cc43)C2)OC1=O` [Example 123, 1-(((5S,7S)-3-(6-chloro-4-methoxypyridin-3-yl)-2-oxo-1-oxa-3-azaspiro[4.5]decan-7-yl)methyl)-1H-benzo[d]imidazole-6-carbonitrile]: the IC50 was in the range of 0.1 to 10 nM.
For the compound `CC(C)(CN1C[C@@]2(CCC[C@H](Cn3cnc4ccc(C#N)cc43)C2)OC1=O)c1nc(C2CCCC2)no1` [Example 77, 1-({(5S,7S)-3-[2-(3-cyclopentyl-1,2,4-oxadiazol-5-yl)-2-methylpropyl]-2-oxo-1-oxa-3-azaspiro[4.5]dec-7-yl}methyl)-1H-benzimidazole-6-carbonitrile], the IC50 is 0.1 to 10 nM.
In the case of `Cc1nc(C(F)(F)F)ncc1N1C[C@@]2(CCC[C@H](Cn3cnc4ccc(C#N)cc43)C2)OC1=O` [Example 124, 1-(((5S,7S)-3-(4-methyl-2-(trifluoromethyl)pyrimidin-5-yl)-2-oxo-1-oxa-3-azaspiro[4.5]decan-7-yl)methyl)-1H-benzo[d]imidazole-6-carbonitrile], the IC50 fell in the range of 10 to 50 nM.
Consider `N#Cc1cc(Cl)c2ncn(C[C@H]3CCC[C@]4(C3)CN(CC3(c5nc(-c6ccccc6)no5)CCOCC3)C(=O)O4)c2c1` [Example 84, 4-chloro-1-[((5S,7S)-2-oxo-3-{[4-(3-phenyl-1,2,4-oxadiazol-5-yl)tetrahydro-2H-pyran-4-yl]methyl}-1-oxa-3-azaspiro[4.5]dec-7-yl)methyl]-1H-benzimidazole-6-carbonitrile], for which the IC50 was 0.1 to 10 nM.
As to `C[C@]1(Cn2cnc3ccc(C#N)cc32)CCC[C@@]2(CN(Cc3ccc(F)cn3)C(=O)O2)C1` [Example 159, 1-(((5S,7S)-3-((5-fluoropyridin-2-yl)methyl)-7-methyl-2-oxo-1-oxa-3-azaspiro[4.5]decan-7-yl)methyl)-1H-benzo[d]imidazole-6-carbonitrile], the IC50 fell in the range of 0.1 to 10 nM.
With `CC(C)(C)c1cc(N2C[C@@]3(CCC[C@](C)(Cn4cnc5ccc(C#N)cc54)C3)OC2=O)on1` [Example 1, 1-({(5S,7S)-3-[3-(1,1-Dimethylethyl)-5-isoxazolyl]-7-methyl-2-oxo-1-oxa-3-azaspiro[4.5]dec-7-yl}methyl)-1H-benzimidazole-6-carbonitrile], the IC50 fell in the range of 10 to 50 nM.
With `CC(C)Cc1cc(N2C[C@@]3(CCC[C@](C)(Cn4cnc5ccc(C#N)cc54)C3)OC2=O)on1` [Example 31, 1-({(5S,7S)-7-methyl-3-[3-(2-methylpropyl)-5-isoxazolyl]-2-oxo-1-oxa-3-azaspiro[4.5]dec-7-yl}methyl)-1H-benzimidazole-6-carbonitrile], the IC50 was in the range of 0.1 to 10 nM.
Under `CC(C)(C)c1cnc(N2C[C@@]3(CCC[C@](C)(Cn4cnc5ccc(C#N)cc54)C3)OC2=O)cn1` [Example 53, 1-(((5S,7S)-3-(5-(tert-butyl)pyrazin-2-yl)-7-methyl-2-oxo-1-oxa-3-azaspiro[4.5]decan-7-yl)methyl)-1H-benzo[d]imidazole-6-carbonitrile] stands 0.1 to 10 nM; under `CC(C)(CN1C[C@@]2(CCC[C@H](Cn3cnc4ccc(C#N)cc43)C2)OC1=O)c1nnc(-c2ccccc2)o1` [Example 5, 1-({(5S,7S)-3-[2-Methyl-2-(5-phenyl-1,3,4-oxadiazol-2-yl)propyl]-2-oxo-1-oxa-3-azaspiro[4.5]dec-7-yl}methyl)-1H-benzimidazole-6-carbonitrile], 0.1 to 10 nM.
For `COc1cc(C)c(N2C[C@@]3(CCC[C@](CO)(Cn4cnc5ccc(C#N)cc54)C3)OC2=O)cn1` [Example 143, 1-((7-(hydroxymethyl)-3-(6-methoxy-4-methylpyridin-3-yl)-2-oxo-1-oxa-3-azaspiro[4.5]decan-7-yl)methyl)-1H-benzo[d]imidazole-6-carbonitrile], the IC50 lay within 10 to 50 nM.
The result for `Cc1noc(N2C[C@@]3(CCC[C@H](Cn4cnc5ccc(C#N)cc54)C3)OC2=O)c1C` [Example 58, 1-(((5S,7S)-3-(3,4-dimethylisoxazol-5-yl)-2-oxo-1-oxa-3-azaspiro[4.5]decan-7-yl)methyl)-1H-benzo[d]imidazole-6-carbonitrile] reads 50 to 500 nM.
Under `CC(C)(CN1C[C@@]2(CCC[C@H](Cn3cnc4ccc(C#N)cc43)C2)OC1=O)c1nc(-c2ccccc2)no1` [Example 75, 1-({(5S,7S)-3-[2-methyl-2-(3-phenyl-1,2,4-oxadiazol-5-yl)propyl]-2-oxo-1-oxa-3-azaspiro[4.5]dec-7-yl}methyl)-1H-benzimidazole-6-carbonitrile] stands 0.1 to 10 nM.
As for `C[C@]1(Cn2cnc3ccc(C#N)cc32)CCC[C@@]2(CN(Cc3ccccn3)C(=O)O2)C1` [Example 4, 1-{[(5S,7S)-7-Methyl-2-oxo-3-(2-pyridinylmethyl)-1-oxa-3-azaspiro[4.5]dec-7-yl]methyl}-1H-benzimidazole-6-carbonitrile], the IC50 was 0.1 to 10 nM.
Turning to `CCOc1ncc(N2C[C@@]3(CCC[C@](C)(Cn4cnc5ccc(C#N)cc54)C3)OC2=O)cn1` [Example 113, 1-(((5S,7S)-3-(2-ethoxypyrimidin-5-yl)-7-methyl-2-oxo-1-oxa-3-azaspiro[4.5]decan-7-yl)methyl)-1H-benzo[d]imidazole-6-carbonitrile], the IC50 is 10 to 50 nM.
With `CCn1ncc(N2C[C@@]3(CCC[C@](C)(Cn4cnc5ccc(C#N)cc54)C3)OC2=O)c1C` [Example 16, 1-(((5S,7S)-3-(1-Ethyl-5-methyl-1H-pyrazol-4-yl)-7-methyl-2-oxo-1-oxa-3-azaspiro[4.5]decan-7-yl)methyl)-1H-benzo[d]imidazole-6-carbonitrile], the IC50 lay within 0.1 to 10 nM.
For `C[C@]1(Cn2cnc3ccc(C#N)cc32)CCC[C@@]2(CN(c3cnc(C(F)(F)F)nc3)C(=O)O2)C1` [Example 25, 1-(((5S,7S)-7-Methyl-2-oxo-3-(2-(trifluoromethyl)pyrimidin-5-yl)-1-oxa-3-azaspiro[4.5]decan-7-yl)methyl)-1H-benzo[d]imidazole-6-carbonitrile], the IC50 is 0.1 to 10 nM.
Regarding `C[C@]1(Cn2cnc3ccc(C#N)cc32)CCC[C@@]2(CN(c3cc(C4CCC4)no3)C(=O)O2)C1` [Example 40, 1-(((5S,7S)-3-(3-cyclobutylisoxazol-5-yl)-7-methyl-2-oxo-1-oxa-3-azaspiro[4.5]decan-7-yl)methyl)-1H-benzo[d]imidazole-6-carbonitrile], the IC50 fell in the range of 10 to 50 nM.
